Series [1] in a line: distribution coefficient (LogD). The format is physicochemical. The source says:
(§1) Pharmacophore Model Building
(§2) The pharmacophore predictive
(§3) Broad- Panel Kinase Profiling
(§4) according to in-house protocols therein.
(§5) Pharmacokinetic Anal yses
(§6) In vitro pharmacok inetic assays were […]

For series [2], the target named is T1, GST-hMKK7 (Homo sapiens, UniProt O14733).
T1 construct: Full-length human (h)MKK7 was expressed as a protein fused to an N-terminal GST tag (GST-MKK7); made in house
T1 sequence (O14733 1-419): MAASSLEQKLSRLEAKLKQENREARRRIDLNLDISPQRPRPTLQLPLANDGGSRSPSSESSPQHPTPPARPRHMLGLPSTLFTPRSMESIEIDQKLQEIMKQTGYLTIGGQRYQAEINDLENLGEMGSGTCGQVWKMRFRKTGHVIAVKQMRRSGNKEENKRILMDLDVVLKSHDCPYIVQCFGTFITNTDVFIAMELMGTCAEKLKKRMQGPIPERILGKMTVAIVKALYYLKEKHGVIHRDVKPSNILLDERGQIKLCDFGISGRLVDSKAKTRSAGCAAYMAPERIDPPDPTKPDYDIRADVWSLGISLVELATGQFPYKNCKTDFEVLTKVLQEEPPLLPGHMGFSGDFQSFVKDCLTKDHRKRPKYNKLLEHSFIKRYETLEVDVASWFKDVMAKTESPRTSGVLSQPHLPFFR
Description: tryptophan fluorescence quenching analysis. The format is binding. To be noted: DTP3/MKK7 interaction. The method, then:
The stoichiometry and KD value of the DTP3/MKK7 interaction were determined by tryptophan fluorescence quenching analysis, after fitting the fluorescence data with a nonlinear regression algorithm, as described by [Williamson (2013)]. Additional details are provided in Supplemental Experimental Procedures, along with a description of the methods used for CD and MALDI-TOF mass spectrometry analyses and the pull-down of MKK7 from cells with DTP3.
Spectrofluorimetric Analyses
The stoichiometry of the interaction of DTP3 with MKK7 was determined by using tryptophan f luorescence quenching analysis. Spectra were acquired with a Cary Eclipse Spectrof luorimeter analyzer (Varian Inc.), equipped with Peltier thermostating system, and a 1- cm quartz cuvette. The analyses were carried out using 1. 25 μM of GST -hMKK7 or GST dissolved in 10 mM of phosphate buff er, pH 7.5, and increasing concentrations of DTP3 or control SCRB D-peptide dissolved in the same buffer. […] The fluorescence values recorded at 333 nm were extracted, transformed to -ΔFluorescence and, then, plotted against the peptide concentration.
Fluorescence data were f itted using a single- site binding model (equation 1): […]
binding, was a highly appropriate model to account for the measured f lorescence trends, resulting in a R square (R2) of 0.985 and a chi square (X2) of 1.436. […]

Series [3] in a line: thermodynamic solubility. The format is physicochemical. To be noted: in PBS, pH 7.4, for 14 days at 37 °C.
Source text: as §1, §2, §3, §4, §5, §6

Series [4] in a line: plasma stability. The format is in vitro ADME, human.
Source text: as §1, §2, §3, §4, §5, §6

In brackets after ≈: the same amount, converted by molar mass.

In general, logD refers to the decadic logarithm of the distribution of all forms, ionised or not, between an organic phase and buffer at a given pH. The low end stands for a more hydrophilic compound, the high end for a more lipophilic compound. A word on the Kd: it is a measure of binding affinity in units of concentration. Usually solubility (thermodynamic) stands for solubility found after equilibrating the solid with the medium. In series [1], `CC(=O)N[C@H](Cc1ccc(O)cc1)C(=O)N[C@H](CCCNC(=N)N)C(=O)N[C@H](Cc1ccccc1)C(N)=O` [DTP3, Ac-YRF-NH2] showed a logD of 1.19 ± 0.29. Besides, in series [2], the Kd was found to be 64.8 ± 6.22 nM. Besides, the solubility (thermodynamic) in series [3] came out at 169 ± 7.53 mg/mL (≈ 322 mM). Also, the “plasma stability (human)” value in series [4] was over 48 h.

Values taken from paper PMC4197335, “Cancer-Selective Targeting of the NF-κB Survival Pathway with GADD45β/MKK7 Inhibitors” (Cancer Cell, 2014).
